Measured values from ChEMBL document CHEMBL4665641, “Lead optimization and efficacy evaluation of quinazoline-based BET family inhibitors for potential treatment of cancer and inflammatory diseases” (Bioorg Med Chem Lett, 2019).
Activity calls are given as the source filed them. The rule behind the calls is not given here.

Key:
Kasumi 1 [1] = test: Antitumor activity against human Kasumi-1 cells xenografted in CB17 SCID mouse assessed as inhibition of tumor growth at 10 mg/kg, po QD for 25 days; assay type: functional; settings: Kasumi 1, po, 600 h, time 25 day, read-out: TGI
Kasumi 1 [2] = test: Antitumor activity against human Kasumi-1 cells xenografted in CB17 SCID mouse assessed as tumor weight at 40 mg/kg, po QD for 25 days (reference value: 2.57 +/-0.27 g); assay type: functional; settings: time 25 day
Kasumi 1 [3] = test: Antitumor activity against human Kasumi-1 cells xenografted in CB17 SCID mouse assessed as inhibition of tumor growth at 40 mg/kg, po QD for 25 days; assay type: functional; settings: Kasumi 1, po, 600 h, time 25 day, read-out: TGI
[4] = Oral bioavailability in CD-1 mouse at 10 mg/kg; assay type: ADME, organism-based; settings: mouse, in vivo, 10 mg/kg
[5] = molecular target: T1, Bromodomain-containing protein 4 (Homo sapiens, UniProt O60885); test: Competitive binding affinity to human partial length BRD4 (BD1,2) (N44 to E460 residues) expressed in bacterial expression system by BROMOscan assay
MV4-11 = test: Cytotoxicity against human MV4-11 cells assessed as inhibition of cell viability; assay type: functional, cell-based
[6] = Half life in CD-1 mouse at 2 mg/kg, iv; assay type: ADME, organism-based; settings: in vivo
[7] = Cmax in CD-1 mouse at 2 mg/kg, iv measured after 5 mins; assay type: ADME, organism-based; design: route intravenous, dose 2 mg/kg; settings: mouse, in vivo, 5 min
[8] = Cmax in CD-1 mouse at 10 mg/kg, po; assay type: ADME, organism-based; design: route oral, dose 10 mg/kg; settings: CD-1, mouse, in vivo, read-out: Cmax
[9] = AUC(0 to infinity) in CD-1 mouse at 10 mg/kg, po; assay type: ADME, organism-based; design: route oral, time infinity, dose 10 mg/kg; settings: mouse, in vivo
[10] = Stability in rat liver microsomes assessed as half life; assay type: ADME, Microsome
[11] = Stability in human liver microsomes assessed as half life; assay type: ADME, Microsome
[12] = Toxicity in CD1 mouse assessed as weight loss at 50 to 100 mg/kg, po administered once daily for 5 days and observed for 5 days after last dose; assay type: organism-based; settings: in vivo, 120 h, dose 50-100 mg/kg, time 5 day
[13] = Toxicity in CD1 mouse assessed as clinical abnormalities at 50 to 100 mg/kg, po administered once daily for 5 days and observed for 5 days after last dose; assay type: organism-based; settings: in vivo, 120 h, dose 50-100 mg/kg, time 5 day
[14] = Apparent permeability across apical to basolateral side in human Caco2 cells; assay type: ADME, cell-based; settings: caco-2
[15] = Efflux ratio of apparent permeability from basolateral side to apical side over apical side to basolateral side in human Caco2 cells; assay type: ADME, cell-based; settings: caco-2
CYP3A4 = CYP3A4 (Homo sapiens, UniProt P08684); test: Inhibition of human CYP3A4 at 10 uM using testosterone as substrate relative to control; assay type: ADME; settings: probe testosterone
CYP3A4, sequence (P08684 whole entry): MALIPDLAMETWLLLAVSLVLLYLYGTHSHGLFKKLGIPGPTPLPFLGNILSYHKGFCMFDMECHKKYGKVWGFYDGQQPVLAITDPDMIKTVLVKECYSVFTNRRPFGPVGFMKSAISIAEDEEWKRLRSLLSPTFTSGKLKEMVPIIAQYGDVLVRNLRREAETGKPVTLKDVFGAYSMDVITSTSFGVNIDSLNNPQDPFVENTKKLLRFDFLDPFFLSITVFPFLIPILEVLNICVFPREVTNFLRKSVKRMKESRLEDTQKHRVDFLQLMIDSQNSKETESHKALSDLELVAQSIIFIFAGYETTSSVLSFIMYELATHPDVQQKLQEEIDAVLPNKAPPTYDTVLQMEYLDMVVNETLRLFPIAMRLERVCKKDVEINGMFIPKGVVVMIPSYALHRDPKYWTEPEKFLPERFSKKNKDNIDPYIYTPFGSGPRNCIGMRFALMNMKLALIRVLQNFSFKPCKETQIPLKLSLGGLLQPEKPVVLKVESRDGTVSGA

Cytochrome P450 2C9 = Cytochrome P450 2C9 (Homo sapiens, UniProt P11712); test: Inhibition of human CYP2C9 at […]; assay type: ADME; settings: dose 2.1 µM
Cytochrome P450 2C9, sequence (P11712 whole entry): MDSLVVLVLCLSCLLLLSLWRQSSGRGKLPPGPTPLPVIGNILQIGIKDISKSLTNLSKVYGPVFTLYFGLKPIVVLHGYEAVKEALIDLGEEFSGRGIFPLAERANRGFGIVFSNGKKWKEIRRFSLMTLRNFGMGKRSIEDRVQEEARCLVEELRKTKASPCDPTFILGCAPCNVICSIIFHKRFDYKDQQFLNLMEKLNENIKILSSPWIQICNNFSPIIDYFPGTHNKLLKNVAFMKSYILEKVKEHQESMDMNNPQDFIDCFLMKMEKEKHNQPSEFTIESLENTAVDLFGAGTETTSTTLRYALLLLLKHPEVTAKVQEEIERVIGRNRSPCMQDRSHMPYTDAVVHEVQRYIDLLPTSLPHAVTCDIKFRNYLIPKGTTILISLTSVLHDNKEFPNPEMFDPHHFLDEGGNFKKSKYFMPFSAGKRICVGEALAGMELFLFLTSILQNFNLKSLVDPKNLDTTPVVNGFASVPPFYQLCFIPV

[16] = molecular target: Voltage-gated inwardly rectifying potassium channel KCNH2 (Homo sapiens, UniProt Q12809); test: Inhibition of human ERG by manual patch clamp assay
Voltage-gated inwardly rectifying potassium channel KCNH2, sequence (Q12809 whole entry): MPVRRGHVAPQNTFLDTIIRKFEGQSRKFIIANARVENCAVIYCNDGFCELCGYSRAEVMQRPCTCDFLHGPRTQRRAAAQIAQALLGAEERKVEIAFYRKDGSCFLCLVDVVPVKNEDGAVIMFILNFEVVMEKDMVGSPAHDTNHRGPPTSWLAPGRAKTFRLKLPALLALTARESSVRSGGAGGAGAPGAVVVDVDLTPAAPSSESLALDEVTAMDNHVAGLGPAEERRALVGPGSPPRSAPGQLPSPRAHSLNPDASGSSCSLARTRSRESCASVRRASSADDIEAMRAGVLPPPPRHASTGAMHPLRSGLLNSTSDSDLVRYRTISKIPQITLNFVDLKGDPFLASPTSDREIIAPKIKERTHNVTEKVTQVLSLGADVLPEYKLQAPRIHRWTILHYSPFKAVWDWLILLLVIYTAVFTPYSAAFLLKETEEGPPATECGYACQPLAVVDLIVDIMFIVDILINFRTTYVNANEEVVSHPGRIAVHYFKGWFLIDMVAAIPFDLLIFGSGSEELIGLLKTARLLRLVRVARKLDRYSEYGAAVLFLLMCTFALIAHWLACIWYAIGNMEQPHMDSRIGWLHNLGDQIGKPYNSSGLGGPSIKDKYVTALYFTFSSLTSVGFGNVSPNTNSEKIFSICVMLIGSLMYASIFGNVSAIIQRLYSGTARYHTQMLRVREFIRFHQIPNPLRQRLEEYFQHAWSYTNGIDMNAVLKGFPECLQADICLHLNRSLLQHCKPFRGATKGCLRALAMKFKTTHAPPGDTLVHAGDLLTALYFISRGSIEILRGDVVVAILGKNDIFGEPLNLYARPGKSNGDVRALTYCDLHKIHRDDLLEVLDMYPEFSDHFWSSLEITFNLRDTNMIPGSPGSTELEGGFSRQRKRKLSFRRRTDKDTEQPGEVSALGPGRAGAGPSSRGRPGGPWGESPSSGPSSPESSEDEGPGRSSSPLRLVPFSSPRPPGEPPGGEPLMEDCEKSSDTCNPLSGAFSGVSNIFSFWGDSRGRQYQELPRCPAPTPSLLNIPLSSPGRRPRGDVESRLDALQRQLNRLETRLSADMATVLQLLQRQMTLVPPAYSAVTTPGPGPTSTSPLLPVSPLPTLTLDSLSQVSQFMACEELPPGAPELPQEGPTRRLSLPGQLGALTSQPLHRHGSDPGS

Kasumi 1 [17] = test: Antitumor activity against human Kasumi-1 cells xenografted in CB17 SCID mouse assessed as tumor volume at 10 mg/kg, po QD for 25 days (reference value: 2189 +/- 604 mm3); assay type: functional; settings: time 25 day
[18] = Toxicity in CB17 SCID mouse xenografted with human Kasumi-1 cells assessed body weight loss at 10 to 40 mg/kg, po QD for 25 days; assay type: organism-based; settings: in vivo, 600 h, dose 10-40 mg/kg, time 25 day
[19] = Drug uptake in tumor tissue of CB17 SCID mouse xenografted with human Kasumi-1 cells at 40 mg/kg, po QD for 25 days and measured after 24 hrs post last dose; assay type: ADME, organism-based, Neoplasm; settings: time 25 day, read-out: Drug uptake
Mus musculus [20] = test: Antiarthritic activity in collagen/complete freund's adjuvant-induced arthritis DBA/1 mouse model assessed as reduction in arthritis severity score at 50 mg/kg, po administered via gavage once daily starting from day 21 to day 41 post collagen/CFA challenge and measured on day 0, 18, 21 followed by three times weekly up to 42 days; assay type: functional, organism-based; settings: time 21.0 day
[21] = Toxicity in collagen/CFA induced arthritis DBA/1 mouse model assessed as body weight at 50 mg/kg, po administered via gavage starting from day 21 to day 41 post collagen/CFA challenge and measured on day 21 relative to initial weight (reference value: 94.96%); assay type: organism-based; settings: in vivo, 504 h, time 21 day
Mus musculus [22] = test: Antiarthritic activity in collagen/complete freund's adjuvant-induced DBA/1 mouse model of arthritis assessed as reduction in joint inflammation at 50 mg/kg, po administered via gavage starting from day 21 to day 41 post collagen/CFA challenge and measured on day 42 by H&E staining based analysis; assay type: functional, organism-based; settings: time 21.0 day
Mus musculus [23] = test: Antiarthritic activity in collagen/complete freund's adjuvant-induced arthritis DBA/1 mouse model assessed as hind paw histological score at 50 mg/kg, po administered via gavage starting from day 21 to day 41 post collagen/CFA challenge and measured on day 42 by hematoxylin-eosin staining based assay (reference value: 2.66 +/- 0.44 au); assay type: functional; settings: time 21 day
Mus musculus [24] = test: (§1) Antiinflammatory activity in collagen/complete freund's adjuvant-induced arthritis DBA/1 mouse model assessed as IL-6 level in rear right paw at 50 mg/kg, po administered via gavage starting from day 21 to day 41 post collagen/CFA challenge and measured on day 42 measured per mg protein (reference value: 180.7 pg); assay type: functional; settings: time 21 day
Mus musculus [25] = test: as §1, with “IP-10” for “IL-6”, “6.23” for “180.7”; assay type: functional; settings: time 21 day
Mus musculus [26] = test: as §1, with “MCP-1” for “IL-6”, “126.24” for “180.7”; assay type: functional; settings: time 21 day
Kasumi 1 [27] = test: Antiproliferative activity against human Kasumi-1 cells after 72 hrs by Celltiter-Glo assay; assay type: functional, cell-based; settings: Kasumi 1, 72 h
Kasumi 1 [28] = test: Antitumor activity against human Kasumi-1 cells xenografted in CB17 SCID mouse assessed as tumor weight at 10 mg/kg, po QD for 29 days (reference value: 2.1+/- 0.3 g); assay type: functional; settings: time 29 day
Kasumi 1 [29] = test: Antitumor activity against human Kasumi-1 cells xenografted in CB17 SCID mouse assessed as inhibition of tumor growth at 10 mg/kg, po QD for 29 days; assay type: functional; settings: Kasumi 1, po, 696 h, time 29 day, read-out: TGI
Mus musculus [30] = test: as §1, with “IFN-gamma” for “IL-6”, “0.78” for “180.7”; assay type: functional; settings: time 21 day
[31] = molecular target: Bromodomain-containing protein 2 (Homo sapiens, UniProt P25440); test: Binding affinity to human partial length BRD2 (BD1) (K71 to N194 residues) expressed in bacterial expression system by BROMOscan assay
Bromodomain-containing protein 2, sequence (P25440 whole entry, the tested form may be a part): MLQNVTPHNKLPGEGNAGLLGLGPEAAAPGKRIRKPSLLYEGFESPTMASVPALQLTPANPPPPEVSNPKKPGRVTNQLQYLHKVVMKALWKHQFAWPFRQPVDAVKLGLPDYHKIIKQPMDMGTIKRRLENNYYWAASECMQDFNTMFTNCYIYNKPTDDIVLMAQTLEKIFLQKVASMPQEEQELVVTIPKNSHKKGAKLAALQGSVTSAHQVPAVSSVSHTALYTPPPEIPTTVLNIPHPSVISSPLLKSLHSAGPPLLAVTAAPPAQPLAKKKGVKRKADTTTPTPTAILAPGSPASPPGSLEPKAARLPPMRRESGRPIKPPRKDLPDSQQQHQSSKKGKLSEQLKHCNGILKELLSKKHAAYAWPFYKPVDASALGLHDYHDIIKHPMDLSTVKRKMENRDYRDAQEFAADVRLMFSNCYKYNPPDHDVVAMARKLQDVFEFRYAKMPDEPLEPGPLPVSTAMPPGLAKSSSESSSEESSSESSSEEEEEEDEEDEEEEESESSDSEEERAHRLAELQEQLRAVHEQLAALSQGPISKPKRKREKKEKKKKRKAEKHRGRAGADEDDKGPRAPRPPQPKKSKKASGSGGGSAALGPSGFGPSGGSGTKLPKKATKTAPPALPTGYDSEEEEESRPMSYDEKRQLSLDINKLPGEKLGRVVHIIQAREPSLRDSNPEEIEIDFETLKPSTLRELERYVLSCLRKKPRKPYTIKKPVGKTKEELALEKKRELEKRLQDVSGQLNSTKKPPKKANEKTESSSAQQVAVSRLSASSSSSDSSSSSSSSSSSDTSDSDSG

[32] = molecular target: T1, Bromodomain-containing protein 4; test: Binding affinity to human partial length BRD4 (BD1) (N44 to E168 residues) expressed in bacterial expression system by BROMOscan assay
[33] = molecular target: T1, Bromodomain-containing protein 4; test: Binding affinity to human partial length BRD4 (BD2) (K333 to E460 residues) expressed in bacterial expression system by BROMOscan assay
[34] = molecular target: Bromodomain testis-specific protein (Homo sapiens, UniProt Q58F21); test: Binding affinity to human partial length BRDT (BD1,2) (N21 to E382 residues) expressed in bacterial expression system by BROMOscan assay

Question: Which results are given for `Cc1noc(C)c1-c1ccc2nc(-c3cnn(CC(C)(C)O)c3)nc(N3CCOC[C@@H]3c3ccccc3)c2c1`?
Answer: inhibition in vivo at 10 mg/kg (Kasumi 1 [1]): 41.4%; Activity (Kasumi 1 [2]): 0.04 g; inhibition in vivo at 40 mg/kg (Kasumi 1 [3]): 98.6%; F [4]: 75%; Kd [5]: 70 nM; IC50 (MV4-11): 940 nM; half-life [6]: 1.7 h; Cmax [7]: 2337 ng/mL; Cmax [8]: 2160 ng/mL; AUC [9]: 18927 ng·h/mL; half-life [10]: 0.7 h; half-life [11]: 1.7 h; Activity [12]: Non-Toxic; Activity [13]: Non-Toxic; Papp [14]: 18.2 10^-6 cm/s; Ratio [15]: 1; inhibition at 10 µM (CYP3A4): < 50%; INH (Cytochrome P450 2C9): Active; IC50 [16]: 6500 nM; Activity (Kasumi 1 [17]): 1303 mm3; Activity [18]: Non-Toxic; concentration at 600 h [19]: 2260 ng/g; Activity (Mus musculus [20]): Active; Activity [21]: 101.92%; Activity (Mus musculus [22]): Active; Activity (Mus musculus [23]): 0.5 a.u.; Activity (Mus musculus [24]): 21.62 pg; Activity (Mus musculus [25]): 0.92 pg; Activity (Mus musculus [26]): 8.48 pg; IC50 (Kasumi 1 [27]): 220 nM; Activity (Kasumi 1 [28]): 1.22 g; inhibition in vivo at 10 mg/kg (Kasumi 1 [29]): 41.9%; Activity (Mus musculus [30]): 1.29 pg; Kd [31]: 45 nM; Kd [32]: 17 nM; Kd [33]: 81 nM; Kd [34]: 170 nM
